Results as given in PubChem BioAssay AID248 (DTP/NCI, 2004).
Several values for one entry are separate records, joined by “and”; a condition that tells them apart may be missing. Equal values may be shown once. Toxic doses and inconclusive results are not listed. Rule as the data show it: active = T/C of 150% or more; inactive = T/C below 125%.

Tested on: L1210 leukemia ip in BDF1 mice, survival T/C
Test: NCI In Vivo Anticancer Drug Screen. Data for tumor model L1210 Leukemia (intraperitoneal) in B6D2F1 (BDF1) mice
Details: endpoint: mean survival time, higher = longer survival
How it was run: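 Read-out is survival time, reported as the treated-group measurement over the vehicle-control measurement.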

[1] = dose: 100.0 mg/kg/injection, schedule: Q01DX009 (ip), vehicle: Klucel (hydroxypropylcellulose) (HPC)
[2] = dose: 100.0 mg/kg/injection, schedule: Q04DX003 (ip), vehicle: Klucel (hydroxypropylcellulose) (HPC)
[3] = dose: 200.0 mg/kg/injection, schedule: Q01DX009 (ip), vehicle: Klucel (hydroxypropylcellulose) (HPC)
[4] = dose: 200.0 mg/kg/injection, schedule: Q04DX003 (ip), vehicle: Klucel (hydroxypropylcellulose) (HPC)
[5] = dose: 400.0 mg/kg/injection, schedule: Q01DX009 (ip), vehicle: Klucel (hydroxypropylcellulose) (HPC)
[6] = dose: 400.0 mg/kg/injection, schedule: Q04DX003 (ip), vehicle: Klucel (hydroxypropylcellulose) (HPC)
[7] = dose: 100.0 mg/kg/injection, schedule: Q01DX001 (ip), vehicle: carboxymethylcellulose (CMC)
[8] = dose: 200.0 mg/kg/injection, schedule: Q01DX001 (ip), vehicle: carboxymethylcellulose (CMC)
[9] = dose: 100.0 mg/kg/injection, schedule: Q04DX002 (ip), vehicle: saline with Tween-80
[10] = dose: 50.0 mg/kg/injection, schedule: Q01DX009 (ip), vehicle: saline with Tween-80
[11] = dose: 100.0 mg/kg/injection, schedule: Q01DX009 (ip), vehicle: saline with Tween-80
[12] = dose: 200.0 mg/kg/injection, schedule: Q01DX009 (ip), vehicle: saline with Tween-80
[13] = dose: 100.0 mg/kg/injection, schedule: Q04DX003 (ip), vehicle: saline with Tween-80
[14] = dose: 200.0 mg/kg/injection, schedule: Q04DX003 (ip), vehicle: saline with Tween-80
[15] = dose: 400.0 mg/kg/injection, schedule: Q04DX003 (ip), vehicle: saline with Tween-80

Measured: T/C

CC(CC#N)OC(=O)c1cccc([N+](=O)[O-])c1 (configuration not stated)
inactive: [1] 91 % of control | [2] 115 % of control | [3] 93 % of control | [4] 93 % of control | [5] 98 % of control | [6] 105 % of control

O=C(O)Cc1ccc(NC(=O)NCCCl)cc1
inactive: [7] 87 % of control | [8] 98 % of control | dose: 400.0 mg/kg/injection, schedule: Q01DX001 (ip), vehicle: carboxymethylcellulose (CMC) 93 % of control

O=C1C=CC(c2ccccc2)(c2ccccc2)C=C1
inactive: dose: 25.0 mg/kg/injection, schedule: Q04DX002 (ip), vehicle: saline with Tween-80 93 % of control | dose: 50.0 mg/kg/injection, schedule: Q04DX002 (ip), vehicle: saline with Tween-80 101 % of control | [9] 96 % of control

CCC(/C=N/NC(N)=O)CC
inactive: [2] 101 % of control | [4] 93 % of control | [6] 96 % of control

CCOC(=O)CC(C(C)=O)P(=O)(OCC)OCC (configuration not stated)
inactive: dose: 50.0 mg/kg/injection, schedule: Q01DX009 (ip), vehicle: saline + alcohol 96 % of control | dose: 100.0 mg/kg/injection, schedule: Q01DX009 (ip), vehicle: saline + alcohol 96 % of control | dose: 200.0 mg/kg/injection, schedule: Q01DX009 (ip), vehicle: saline + alcohol 92 % of control

Oc1cccc(-c2nnc(-c3cccc(O)c3)nn2)c1
inactive: dose: 100.0 mg/kg/injection, schedule: Q01DX001 (ip), vehicle: saline 101 % of control | dose: 200.0 mg/kg/injection, schedule: Q01DX001 (ip), vehicle: saline 96 % of control | dose: 400.0 mg/kg/injection, schedule: Q01DX001 (ip), vehicle: saline 102 % of control

COC1/C=C\CC2=CCCC=C2CC1 (configuration not stated)
inactive: [10] 112 % of control | [11] 123 % of control | [12] 105 % of control

COC(=O)C(c1ccccc1)C1(O)CCN(Cc2ccccc2)CC1 (configuration not stated)
inactive: dose: 75.0 mg/kg/injection, schedule: Q04DX003 (ip), vehicle: Klucel (hydroxypropylcellulose) (HPC) 98 % of control | dose: 150.0 mg/kg/injection, schedule: Q04DX003 (ip), vehicle: Klucel (hydroxypropylcellulose) (HPC) 101 % of control | dose: 300.0 mg/kg/injection, schedule: Q04DX003 (ip), vehicle: Klucel (hydroxypropylcellulose) (HPC) 90 % of control

O=C(Nc1ccccc1Cl)Nc1cccc2ccccc12
inactive: dose: 100.0 mg/kg/injection, schedule: Q04DX002 (ip), vehicle: Klucel (hydroxypropylcellulose) (HPC) 105 % of control | dose: 200.0 mg/kg/injection, schedule: Q04DX002 (ip), vehicle: Klucel (hydroxypropylcellulose) (HPC) 102 % of control | dose: 400.0 mg/kg/injection, schedule: Q04DX002 (ip), vehicle: Klucel (hydroxypropylcellulose) (HPC) 98 % of control

O=[N+]([O-])c1cccc(Cl)c1O
inactive: dose: 100.0 mg/kg/injection, schedule: Q01DX001 (ip), vehicle: gum acacia 98 % of control | dose: 200.0 mg/kg/injection, schedule: Q01DX001 (ip), vehicle: gum acacia 100 % of control

Cc1ccc([N+](=O)[O-])cc1NC(=O)Nc1cccc2ccc(O)cc12
inactive: [1] 95 % of control | [3] 93 % of control | [5] 104 % of control

Cc1ccnc(NS(=O)(=O)c2ccc(N=Nc3cc(N=Nc4ccccc4)c(N)nc3N)cc2)n1
inactive: [7] 105 % of control | [8] 102 % of control

CC(=O)[C@H]1CC[C@H]2[C@@H]3CC[C@@H]4C[C@@H](O)CC[C@]4(C)[C@H]3CC[C@]12C
inactive: [9] 97 % of control | dose: 200.0 mg/kg/injection, schedule: Q04DX002 (ip), vehicle: saline with Tween-80 100 % of control | dose: 400.0 mg/kg/injection, schedule: Q04DX002 (ip), vehicle: saline with Tween-80 90 % of control

Cc1ccc(S(=O)(=O)N(CCCc2c(C)nc(N)nc2NCCCc2ccccc2)c2ccccc2)cc1
inactive: dose: 50.0 mg/kg/injection, schedule: Q01DX001 (ip), vehicle: saline with Tween-80 98 % of control | dose: 100.0 mg/kg/injection, schedule: Q01DX001 (ip), vehicle: saline with Tween-80 98 % of control | dose: 200.0 mg/kg/injection, schedule: Q01DX001 (ip), vehicle: saline with Tween-80 90 % of control

Cc1ccccc1SC(=O)Nc1cccc(Cl)c1Cl
inactive: dose: 25.0 mg/kg/injection, schedule: Q01DX009 (ip), vehicle: Klucel (hydroxypropylcellulose) (HPC) 112 % of control | dose: 50.0 mg/kg/injection, schedule: Q01DX009 (ip), vehicle: Klucel (hydroxypropylcellulose) (HPC) 104 % of control | [1] 94 % of control and 103 % of control | [3] 87 % of control

C/C(=N/Nc1ccc2c(O)cc(S(=O)(=O)O)cc2c1)c1ccc(Cl)cc1
inactive: dose: 75.0 mg/kg/injection, schedule: Q01DX009 (ip), vehicle: saline 101 % of control | dose: 150.0 mg/kg/injection, schedule: Q01DX009 (ip), vehicle: saline 98 % of control | dose: 300.0 mg/kg/injection, schedule: Q01DX009 (ip), vehicle: saline 96 % of control

CCOC(=O)COc1ccc(N=NN(C)c2ccccc2)cc1
inactive: dose: 111.0 mg/kg/injection, schedule: Q01DX Z (ip), vehicle: carboxymethylcellulose (CMC) 102 % of control | dose: 166.0 mg/kg/injection, schedule: Q01DX Z (ip), vehicle: carboxymethylcellulose (CMC) 104 % of control | dose: 250.0 mg/kg/injection, schedule: Q01DX Z (ip), vehicle: carboxymethylcellulose (CMC) 113 % of control

[Ni+2].[O-]c1ccccc1C=Nc1ccccc1N=Cc1ccccc1[O-]
inactive: dose: 12.5 mg/kg/injection, schedule: Q01DX009 (ip), vehicle: saline with Tween-80 93 % of control | dose: 25.0 mg/kg/injection, schedule: Q01DX009 (ip), vehicle: saline with Tween-80 93 % of control | [10] 93 % of control

O=C(CCCC(=O)N1CCOCC1)N1CCOCC1
inactive: [2] 108 % of control | [4] 103 % of control | [6] 101 % of control

O=C1OC(c2ccccc2)(c2ccccc2)c2ccccc21
inactive: [1] 93 % of control | [2] 107 % of control | [3] 101 % of control | [4] 102 % of control | [5] 88 % of control | [6] 100 % of control

O=C(Nc1ccccc1C(F)(F)F)OCCOc1ccccc1
inactive: dose: 100.0 mg/kg/injection, schedule: Q01DX009 (ip), vehicle: gum acacia 92 % of control | dose: 200.0 mg/kg/injection, schedule: Q01DX009 (ip), vehicle: gum acacia 88 % of control | dose: 400.0 mg/kg/injection, schedule: Q01DX009 (ip), vehicle: gum acacia 93 % of control

CC1(C)c2ccccc2Nc2ccccc21
inactive: [11] 86 % of control | [13] 97 % of control | [12] 89 % of control | [14] 101 % of control | dose: 400.0 mg/kg/injection, schedule: Q01DX009 (ip), vehicle: saline with Tween-80 89 % of control | [15] 98 % of control

CCC1(C)CC(=O)NC(=O)C1.[Tl]
inactive: dose: 3.12 mg/kg/injection, schedule: Q01DX009 (ip), vehicle: water 100 % of control | dose: 3.12 mg/kg/injection, schedule: Q04DX003 (ip), vehicle: water 97 % of control | dose: 6.25 mg/kg/injection, schedule: Q01DX009 (ip), vehicle: water 97 % of control | dose: 6.25 mg/kg/injection, schedule: Q04DX003 (ip), vehicle: water 100 % of control | dose: 12.5 mg/kg/injection, schedule: Q04DX003 (ip), vehicle: water 105 % of control

CC1=NN(c2cccc(S(=O)(=O)O)c2)C(=O)C1
inactive: [13] 105 % of control | [14] 101 % of control | [15] 89 % of control
